Measured values as given in EPA's ToxRefDB 2.

Experiments:
mouse [1] = conditions: Carcinogenicity, b6c3f1, Oral, Gavage/Intubation, dose end: 2 year, group: systemic
rat [2] = conditions: Combined chronic toxicity/carcinogenicity; fischer; Oral; Gavage/Intubation; dose end: 2 year; group: systemic; systemic / pathology microscopic / kidney / cyst + systemic / pathology microscopic / kidney / hyperplasia + systemic / pathology …
mouse [3] = conditions: Subchronic oral toxicity in rodents, b6c3f1, Gavage/Intubation, dose end: 13 week, group: systemic, systemic / pathology microscopic / kidney / fibrosis + systemic / pathology microscopic / kidney / inflammation + systemic / pathology …
rat [4] = conditions: Subchronic oral toxicity in rodents, fischer, Gavage/Intubation, dose end: 13 week, group: systemic
rat [5] = conditions: Fertility (Segment I), sprague dawley, Oral, Gavage/Intubation, dose end: 63 day, group: parental
dog [6] = conditions: Subchronic oral toxicity in nonrodent, beagle, Gavage/Intubation, dose end: 1 month, group: systemic
rat [7] = conditions: Chronic toxicity; sprague dawley; Oral; Gavage/Intubation; dose end: 26 week; group: systemic; systemic / clinical chemistry / alanine aminotransferase (alt/sgpt) / alanine aminotransferase (alt/sgpt) + systemic / clinical chemistry / …
rat [8] = conditions: Fertility (Segment I), sprague dawley, Oral, Gavage/Intubation, dose end: 6 GD
primate = conditions: Sub-acute repeat dose toxicity; macaque; Oral; Gavage/Intubation; dose end: 35 day; group: systemic; systemic / clinical chemistry / bilirubin / total bilirubin
dog [9] = conditions: Chronic toxicity, beagle, Oral, Gavage/Intubation, dose end: 26 week, group: systemic
rat [10] = conditions: Sub-acute repeat dose toxicity; sprague dawley; Oral; Gavage/Intubation; dose end: 1 month; group: systemic; systemic / clinical chemistry / protein / protein + systemic / clinical chemistry / alanine aminotransferase (alt/sgpt) / alanine …
rabbit = conditions: Prenatal developmental toxicity study, other, Oral, Gavage/Intubation, dose end: 19 GD
mouse [11] = conditions: Carcinogenicity, cd1, Oral, Feed, dose end: 80 week, group: systemic
dog [12] = conditions: Chronic toxicity, beagle, Oral, Capsule, dose end: 52 week, group: systemic
[13] = systemic / pathology microscopic / lung / hyperplasia
[14] = systemic / pathology microscopic / lung / hyperplasia + systemic / pathology microscopic / liver / adenoma + systemic / pathology …
[15] = systemic / in life observation / clinical signs / motor activity + systemic / in life observation / body weight / body weight + systemic / …
[16] = systemic / in life observation / clinical signs / salivation
[17] = systemic / in life observation / body weight / body weight + systemic / in life observation / body weight / body weight gain + systemic / in…
[18] = systemic / in life observation / body weight / body weight gain
[19] = systemic / in life observation / body weight / body weight + systemic / organ weight / thymus / relative to body weight
[20] = systemic / in life observation / body weight / body weight + systemic / organ weight / thymus / relative to body weight + systemic / …
[21] = group: maternal, reproductive / reproductive performance / estrous cycle / abnormal
[22] = group: parental, systemic / in life observation / body weight / body weight gain + systemic / in life observation / clinical signs / salivation + systemic / …
[23] = systemic / organ weight / adrenal gland / absolute + systemic / organ weight / adrenal gland / relative to body weight
[24] = systemic / organ weight / adrenal gland / absolute + systemic / organ weight / adrenal gland / relative to body weight + systemic / clinical…
[25] = group: developmental, developmental / developmental malformation / bone / [other]
[26] = group: maternal, reproductive / reproductive performance / resorptions / resorptions + systemic / in life observation / clinical signs / defecation (diarrhea…
[27] = systemic / in life observation / body weight / body weight gain + systemic / in life observation / body weight / body weight + systemic / …
[28] = systemic / in life observation / body weight / body weight gain + systemic / in life observation / body weight / body weight + systemic / in…

c1ccc2occc2c1 [2,3-Benzofuran]
LOAEL (mouse [1]; [13]): 60 mg/kg/day
NOAEL (mouse [1]; [13]): < 60 mg/kg/day
LEL (mouse [1]; [14]): 60 mg/kg/day
NEL (mouse [1]; [14]): < 60 mg/kg/day
LEL (rat [2]): 30 mg/kg/day
LOAEL (rat [2]): 30 mg/kg/day
NEL (rat [2]): < 30 mg/kg/day
NOAEL (rat [2]): < 30 mg/kg/day
LEL (mouse [3]): 250 mg/kg/day
LOAEL (mouse [3]): 250 mg/kg/day
NEL (mouse [3]): 125 mg/kg/day
NOAEL (mouse [3]): 125 mg/kg/day
LOAEL (rat [4]; [15]): 125 mg/kg/day
NOAEL (rat [4]; [15]): 62.5 mg/kg/day
LEL (rat [4]; [16]): 31.2 mg/kg/day
NEL (rat [4]; [16]): < 31.2 mg/kg/day

Cc1cc2c(cc1C(F)(F)F)N(C(=O)Nc1ccc(Oc3cccnc3C)nc1)CC2.Cl
LOAEL (rat [5]; [17]): > 200 mg/kg/day
NEL (rat [5]; [17]): 2 mg/kg/day
NOAEL (rat [5]; [17]): ≥ 200 mg/kg/day
LEL (rat [5]; [18]): 20 mg/kg/day
LEL (dog [6]; [19]): 2 mg/kg/day
NEL (dog [6]; [19]): < 2 mg/kg/day
LOAEL (dog [6]; [20]): > 1000 mg/kg/day
NOAEL (dog [6]; [20]): ≥ 1000 mg/kg/day
LEL (rat [7]): 2 mg/kg/day
LOAEL (rat [7]): > 100 mg/kg/day
NEL (rat [7]): < 2 mg/kg/day
NOAEL (rat [7]): ≥ 100 mg/kg/day
LEL (rat [8]; [21]): 20 mg/kg/day
LOAEL (rat [8]; [21]): > 20 mg/kg/day
NEL (rat [8]; [21]): 2 mg/kg/day
NOAEL (rat [8]; [21]): ≥ 20 mg/kg/day
LEL (rat [8]; [22]): 2 mg/kg/day
LOAEL (rat [8]; [22]): > 20 mg/kg/day
NEL (rat [8]; [22]): 0.2 mg/kg/day
NOAEL (rat [8]; [22]): ≥ 20 mg/kg/day
LEL (primate): 1000 mg/kg/day
LOAEL (primate): > 1000 mg/kg/day
NEL (primate): 300 mg/kg/day
NOAEL (primate): ≥ 1000 mg/kg/day
LEL (dog [9]; [23]): 2 mg/kg/day
NEL (dog [9]; [23]): < 2 mg/kg/day
LOAEL (dog [9]; [24]): > 300 mg/kg/day
NOAEL (dog [9]; [24]): ≥ 300 mg/kg/day
LEL (rat [10]): 2 mg/kg/day
LOAEL (rat [10]): > 200 mg/kg/day
NEL (rat [10]): < 2 mg/kg/day
NOAEL (rat [10]): ≥ 200 mg/kg/day

COS(=O)(=O)[O-].Cn1c(-c2ccccc2)cc(-c2ccccc2)[n+]1C [Difenzoquat metilsulfate]
LEL (rabbit; [25]): 250 mg/kg/day
LOAEL (rabbit; [25]): 250 mg/kg/day
NEL (rabbit; [25]): 100 mg/kg/day
NOAEL (rabbit; [25]): 100 mg/kg/day
LEL (rabbit; [26]): 250 mg/kg/day
LOAEL (rabbit; [26]): 250 mg/kg/day
NEL (rabbit; [26]): 100 mg/kg/day
NOAEL (rabbit; [26]): 100 mg/kg/day
LEL (mouse [11]; [18]): 69.4 mg/kg/day
LOAEL (mouse [11]; [18]): 69.4 mg/kg/day
NEL (mouse [11]; [27]): 26.9 mg/kg/day
NOAEL (mouse [11]; [27]): 26.9 mg/kg/day
LOAEL (dog [12]; [18]): 30 mg/kg/day
LEL (dog [12]; [28]): 30 mg/kg/day
NEL (dog [12]; [28]): 20 mg/kg/day
NOAEL (dog [12]; [28]): 20 mg/kg/day
